Measured values as given in patent US12371454B2, “Cyclic peptide compound having Kras inhibitory action” (priority 2019, dated 2025).
Starred links: 1 amine or outer side, 2 acyl side, 3 side chain; linkers in the order of their positions; H or OH if unused. Positions of bridges follow the written chain, without caps; N, C: chain ends. Non-standard residues stand in square brackets, D forms with d. Residues, ends and D or L forms follow the SMILES beside them. *: point of attachment. hPhe(3-Cl-4-CF3) = N[C@@H](CCc1ccc(C(F)(F)F)c(Cl)c1)C(=O)O; NMePhe(4-CF3) = CN[C@@H](Cc1ccc(C(F)(F)F)cc1)C(=O)O; 3Oxa8azabicyclo(3.2.1)octane = C1CC2COCC1N2*; NMePhe(4-Me) = CN[C@@H](Cc1ccc(C)cc1)C(=O)O; X11 = CN([C@@H](CCc1cccnc1)C(=O)[*:2])[*:1]; X3 = CN([C@@H](CCc1ccncc1)C(=O)[*:2])[*:1]; NMeAla(cPent) = CN[C@@H](CC1CCCC1)C(=O)O; NMeNva(5,5-F2) = CN[C@@H](CCC(F)F)C(=O)O; NMeGly(cPent) = CN[C@H](C(=O)O)C1CCCC1; NMeCha = CN[C@@H](CC1CCCCC1)C(=O)O; NMeChg = CN[C@H](C(=O)O)C1CCCCC1; Gly(cBu) = N[C@H](C(=O)O)C1CCC1; NMeD = CN[C@@H](CC(=O)O)C(=O)O; NMeL = CN[C@@H](CC(C)C)C(=O)O; NMeNva = CCC[C@H](NC)C(=O)O; NMeAbu = CC[C@H](NC)C(=O)O; NMeS = CN[C@@H](CO)C(=O)O; Morpholide = C1CN(*)CCO1; NMeA = CN[C@@H](C)C(=O)O; Pyrrolidide = C1CCN(*)C1; Ac5c = NC1(C(=O)O)CCCC1; Aze = O=C(O)[C@@H]1CCN1; Sar = CNCC(=O)O; Propyl = CCC*

Experiments:
[1] = tested on: Human pancreatic cancer cell line AsPC-1; assay: Measurement of AsPC-1 cell growth inhibition (AsPC-1 CGI); type: cell-based; details: 96 h
How it was run: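 AsPC-1 cells in 15% FBS RPMI-1640 were exposed to test compound for 96 hours at 37° C, with CellTiter-Glo as endpoint.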

[2] = molecular target: T1, Kras and SOS1 (biotin-tagged human Kras loaded with GDP, His-tagged human SOS1) (Homo sapiens, UniProt P01116, G12D); assay: Protein-protein interaction inhibition between Kras and SOS1 (KrasGl2D-SOS PPI) using AlphaScreen; type: binding; details: AlphaScreen; biotin-tagged human Kras loaded with GDP, His-tagged human SOS1; read-out: KRAS G12D-SOS PPI IC50
T1 construct: made in house; host or cells: E. coli (stated for Kras only)
T1 sequence (P01116 1-188 isoform P01116-2 G12D): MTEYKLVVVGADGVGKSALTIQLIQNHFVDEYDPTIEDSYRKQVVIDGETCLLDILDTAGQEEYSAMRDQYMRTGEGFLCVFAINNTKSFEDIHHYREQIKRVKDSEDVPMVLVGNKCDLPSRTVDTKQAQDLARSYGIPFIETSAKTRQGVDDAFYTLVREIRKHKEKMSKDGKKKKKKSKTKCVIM
How it was run: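 Donor beads (nickel) hold His-SOS1; acceptor beads (streptavidin) hold biotin-Kras bound to GDP. Signal measured at 520-620 nm following 680 nm excitation.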

For `CCC[C@H]1C(=O)N[C@@H]([C@@H](C)CC)C(=O)N(C)CC(=O)N(C)CC(=O)N(C)[C@@H](Cc2ccc(C)cc2)C(=O)N(C)CC(=O)N[C@@H](CCc2ccc(C(F)(F)F)c(Cl)c2)C(=O)N2CCC[C@H]2C(=O)NC2(CCCC2)C(=O)N(C)[C@@H](C2CCCCC2)C(=O)N(C)[C@H](C(=O)N2CCOCC2)CC(=O)N1C` [Compound 1871] ([NMeNva]I[Sar][Sar][NMePhe(4-Me)][Sar][hPhe(3-Cl-4-CF3)]P[Ac5c][NMeChg][NMeD]-Morpholide; lactam N-11), the IC50 [1] was 20 to 50 nM and the IC50 [2] was 0.48 nM.
Molecule `CC[C@H](C)[C@@H]1NC(=O)[C@H](CC(C)C)N(C)C(=O)C[C@@H](C(=O)N2CCOCC2)N(C)C(=O)[C@H](C2CCCCC2)N(C)C(=O)C2(CCCC2)NC(=O)[C@@H]2CCCN2C(=O)[C@H](CCc2ccc(C(F)(F)F)c(Cl)c2)NC(=O)CN(C)C(=O)[C@H](Cc2ccc(C)cc2)N(C)C(=O)CN(C)C(=O)CN(C)C1=O` [Compound 1872] ([NMeL]I[Sar][Sar][NMePhe(4-Me)][Sar][hPhe(3-Cl-4-CF3)]P[Ac5c][NMeChg][NMeD]-Morpholide; lactam N-11) has an IC50 [1] of 20 to 50 nM and an IC50 [2] of 0.65 nM.
For `CC[C@H](C)[C@@H]1NC(=O)[C@H](CC)N(C)C(=O)C[C@@H](C(=O)N2C3CCC2COC3)N(C)C(=O)[C@H](C2CCCCC2)N(C)C(=O)C2(CCCC2)NC(=O)[C@@H]2CCCN2C(=O)[C@H](CCc2ccc(C(F)(F)F)c(Cl)c2)NC(=O)CN(C)C(=O)[C@H](CC2CCCC2)N(C)C(=O)CN(C)C(=O)CN(C)C1=O` [Compound 1877] ([NMeAbu]I[Sar][Sar][NMeAla(cPent)][Sar][hPhe(3-Cl-4-CF3)]P[Ac5c][NMeChg][NMeD]-{3Oxa8azabicyclo(3.2.1)octane}; lactam N-11), the IC50 [1] was 100 to 500 nM and the IC50 [2] was 0.86 nM.
`CC(C)C[C@H]1C(=O)N[C@@H](C2CCC2)C(=O)N(C)CC(=O)N(C)CC(=O)N(C)[C@@H](CC2CCCCC2)C(=O)N(C)CC(=O)N[C@@H](CCc2ccc(C(F)(F)F)c(Cl)c2)C(=O)N2CCC[C@H]2C(=O)NC2(CCCC2)C(=O)N(C)[C@@H](C2CCCCC2)C(=O)N(C)[C@H](C(=O)N2C3CCC2COC3)CC(=O)N1C` [Compound 1879] ([NMeL][Gly(cBu)][Sar][Sar][NMeCha][Sar][hPhe(3-Cl-4-CF3)]P[Ac5c][NMeChg][NMeD]-{3Oxa8azabicyclo(3.2.1)octane}; lactam N-11) showed an IC50 [1] of 50 to 100 nM and an IC50 [2] of 0.66 nM.
In the case of `CC[C@H](C)[C@@H]1NC(=O)[C@H](CC(C)C)N(C)C(=O)C[C@@H](C(=O)N(C)C)N(C)C(=O)[C@H](C2CCCC2)N(C)C(=O)C2(CCCC2)NC(=O)[C@H](CCc2ccncc2)N(C)C(=O)[C@H](CCc2ccc(C(F)(F)F)c(Cl)c2)NC(=O)CN(C)C(=O)[C@H](CC2CCCCC2)N(C)C(=O)[C@@H]2CCN2C(=O)[C@H](C)N(C)C1=O` [Compound 1881] ([NMeL]I[NMeA][Aze][NMeCha][Sar][hPhe(3-Cl-4-CF3)][X3][Ac5c][NMeGly(cPent)][NMeD]-NMe2; lactam N-11), the IC50 [1] is reported as 50 to 100 nM and the IC50 [2] is reported as 1.4 nM.
For `CC[C@H](C)[C@@H]1NC(=O)[C@H](CC)N(C)C(=O)C[C@@H](C(=O)N2CCOCC2)N(C)C(=O)[C@H](C2CCCCC2)N(C)C(=O)C2(CCCC2)NC(=O)[C@@H]2CCCN2C(=O)[C@H](CCc2ccc(C(F)(F)F)c(Cl)c2)NC(=O)CN(C)C(=O)[C@H](Cc2ccc(C(F)(F)F)cc2)N(C)C(=O)CN(C)C(=O)CN(C)C1=O` [Compound 1884] ([NMeAbu]I[Sar][Sar][NMePhe(4-CF3)][Sar][hPhe(3-Cl-4-CF3)]P[Ac5c][NMeChg][NMeD]-Morpholide; lactam N-11), the IC50 [1] was 20 to 50 nM and the IC50 [2] was 0.41 nM.
`CC[C@H](C)[C@@H]1NC(=O)[C@H](CC)N(C)C(=O)C[C@@H](C(=O)N2CCCC2)N(C)C(=O)[C@H](C2CCCCC2)N(C)C(=O)C2(CCCC2)NC(=O)[C@@H]2CCCN2C(=O)[C@H](CCc2ccc(C(F)(F)F)c(Cl)c2)NC(=O)CN(C)C(=O)[C@H](Cc2ccc(C(F)(F)F)cc2)N(C)C(=O)CN(C)C(=O)CN(C)C1=O` [Compound 1890] ([NMeAbu]I[Sar][Sar][NMePhe(4-CF3)][Sar][hPhe(3-Cl-4-CF3)]P[Ac5c][NMeChg][NMeD]-Pyrrolidide; lactam N-11) gave an IC50 [1] of 20 to 50 nM and an IC50 [2] of 0.55 nM.
For `CC[C@H](C)[C@@H]1NC(=O)[C@H](CC(C)C)N(C)C(=O)C[C@@H](C(=O)N(C)C)N(C)C(=O)[C@H](C2CCCC2)N(C)C(=O)C2(CCCC2)NC(=O)[C@H](CCc2cccnc2)N(C)C(=O)[C@H](CCc2ccc(C(F)(F)F)c(Cl)c2)NC(=O)CN(C)C(=O)[C@H](CC2CCCCC2)N(C)C(=O)[C@@H]2CCN2C(=O)[C@H](C)N(C)C1=O` [Compound 1892] ([NMeL]I[NMeA][Aze][NMeCha][Sar][hPhe(3-Cl-4-CF3)][X11][Ac5c][NMeGly(cPent)][NMeD]-NMe2; lactam N-11), the IC50 [1] was 50 to 100 nM and the IC50 [2] was 1.5 nM.
`CCCOC[C@H]1C(=O)N(C)CC(=O)N[C@@H](CCc2ccc(C(F)(F)F)c(Cl)c2)C(=O)N2CCC[C@H]2C(=O)NC2(CCCC2)C(=O)N(C)[C@@H](C2CCCCC2)C(=O)N(C)[C@H](C(=O)N2CCOCC2)CC(=O)N(C)[C@@H](CC)C(=O)N[C@@H]([C@@H](C)CC)C(=O)N(C)CC(=O)N(C)CC(=O)N1C` [Compound 1896] ([NMeAbu]I[Sar][Sar][NMeS](Propyl)[Sar][hPhe(3-Cl-4-CF3)]P[Ac5c][NMeChg][NMeD]-Morpholide; lactam N-11) gave an IC50 [1] of 100 to 500 nM and an IC50 [2] of 0.49 nM.
With `CCCOC[C@H]1C(=O)N(C)CC(=O)N[C@@H](CCc2ccc(C(F)(F)F)c(Cl)c2)C(=O)N2CCC[C@H]2C(=O)NC2(CCCC2)C(=O)N(C)[C@@H](C2CCCCC2)C(=O)N(C)[C@H](C(=O)N2C3CCC2COC3)CC(=O)N(C)[C@@H](CC(C)C)C(=O)N[C@@H]([C@@H](C)CC)C(=O)N(C)CC(=O)N(C)CC(=O)N1C` [Compound 1900] ([NMeL]I[Sar][Sar][NMeS](Propyl)[Sar][hPhe(3-Cl-4-CF3)]P[Ac5c][NMeChg][NMeD]-{3Oxa8azabicyclo(3.2.1)octane}; lactam N-11) the IC50 [1] was 100 to 500 nM and the IC50 [2] was 0.99 nM.
With `CC[C@H](C)[C@@H]1NC(=O)[C@H](CC)N(C)C(=O)C[C@@H](C(=O)N2C3CCC2COC3)N(C)C(=O)[C@H](C2CCCCC2)N(C)C(=O)C2(CCCC2)NC(=O)[C@@H]2CCCN2C(=O)[C@H](CCc2ccc(C(F)(F)F)c(Cl)c2)NC(=O)CN(C)C(=O)[C@H](CC2CCCCC2)N(C)C(=O)CN(C)C(=O)CN(C)C1=O` [Compound 1901] ([NMeAbu]I[Sar][Sar][NMeCha][Sar][hPhe(3-Cl-4-CF3)]P[Ac5c][NMeChg][NMeD]-{3Oxa8azabicyclo(3.2.1)octane}; lactam N-11) the IC50 [1] was 50 to 100 nM and the IC50 [2] was 0.56 nM.
With `CC[C@H](C)[C@@H]1NC(=O)[C@H](CC)N(C)C(=O)C[C@@H](C(=O)N2CCOCC2)N(C)C(=O)[C@H](C2CCCCC2)N(C)C(=O)C2(CCCC2)NC(=O)[C@@H]2CCCN2C(=O)[C@H](CCc2ccc(C(F)(F)F)c(Cl)c2)NC(=O)CN(C)C(=O)[C@H](Cc2ccc(C)cc2)N(C)C(=O)CN(C)C(=O)CN(C)C1=O` [Compound 1904] ([NMeAbu]I[Sar][Sar][NMePhe(4-Me)][Sar][hPhe(3-Cl-4-CF3)]P[Ac5c][NMeChg][NMeD]-Morpholide; lactam N-11) the IC50 [1] was 20 to 50 nM and the IC50 [2] was 0.57 nM.
For `CC[C@H](C)[C@@H]1NC(=O)[C@H](CC)N(C)C(=O)C[C@@H](C(=O)N2CCCC2)N(C)C(=O)[C@H](C2CCCCC2)N(C)C(=O)C2(CCCC2)NC(=O)[C@@H]2CCCN2C(=O)[C@H](CCc2ccc(C(F)(F)F)c(Cl)c2)NC(=O)CN(C)C(=O)[C@H](Cc2ccc(C)cc2)N(C)C(=O)CN(C)C(=O)CN(C)C1=O` [Compound 1905] ([NMeAbu]I[Sar][Sar][NMePhe(4-Me)][Sar][hPhe(3-Cl-4-CF3)]P[Ac5c][NMeChg][NMeD]-Pyrrolidide; lactam N-11), the IC50 [1] was 20 to 50 nM and the IC50 [2] was 0.33 nM.
Molecule `CC(C)C[C@H]1C(=O)N[C@@H](C2CCC2)C(=O)N(C)CC(=O)N(C)CC(=O)N(C)[C@@H](CC2CCCCC2)C(=O)N(C)CC(=O)N[C@@H](CCc2ccc(C(F)(F)F)c(Cl)c2)C(=O)N2CCC[C@H]2C(=O)NC2(CCCC2)C(=O)N(C)[C@@H](C2CCCCC2)C(=O)N(C)[C@H](C(=O)N2CCOCC2)CC(=O)N1C` [Compound 1906] ([NMeL][Gly(cBu)][Sar][Sar][NMeCha][Sar][hPhe(3-Cl-4-CF3)]P[Ac5c][NMeChg][NMeD]-Morpholide; lactam N-11) has an IC50 [1] of 50 to 100 nM and an IC50 [2] of 0.55 nM.
`CC[C@H](C)[C@@H]1NC(=O)[C@H](CC(C)C)N(C)C(=O)C[C@@H](C(=O)N(C)C)N(C)C(=O)[C@H](C2CCCC2)N(C)C(=O)C2(CCCC2)NC(=O)[C@H](CCC(F)F)N(C)C(=O)[C@H](CCc2ccc(C(F)(F)F)c(Cl)c2)NC(=O)CN(C)C(=O)[C@H](CC2CCCCC2)N(C)C(=O)[C@@H]2CCN2C(=O)[C@H](C)N(C)C1=O` [Compound 1907] ([NMeL]I[NMeA][Aze][NMeCha][Sar][hPhe(3-Cl-4-CF3)][NMeNva(5,5-F2)][Ac5c][NMeGly(cPent)][NMeD]-NMe2; lactam N-11) was tested, and the IC50 [1] was 20 to 50 nM and the IC50 [2] was 1.3 nM.
With `CC(C)C[C@H]1C(=O)N[C@@H](C(C)C)C(=O)N(C)CC(=O)N(C)CC(=O)N(C)[C@@H](CC2CCCCC2)C(=O)N(C)CC(=O)N[C@@H](CCc2ccc(C(F)(F)F)c(Cl)c2)C(=O)N2CCC[C@H]2C(=O)NC2(CCCC2)C(=O)N(C)[C@@H](C2CCCCC2)C(=O)N(C)[C@H](C(=O)N2CCOCC2)CC(=O)N1C` [Compound 1908] ([NMeL]V[Sar][Sar][NMeCha][Sar][hPhe(3-Cl-4-CF3)]P[Ac5c][NMeChg][NMeD]-Morpholide; lactam N-11) the IC50 [1] was 50 to 100 nM and the IC50 [2] was 0.65 nM.
